{"source": "paper PMC4604124", "about": "“In Vitro Characterization of the Pharmacological Properties of the Anti-Cancer Chelator, Bp4eT, and Its Phase I Metabolites” (PLoS ONE, 2015)", "test_system": "LC3-II", "experiment": "Western blot and densitometry of LC3-I/II (autophagy)", "assay_type": "cell-based, human", "settings": "for densitometry WB, relative to NT = 1: single blot", "from_the_text": "Established protocols were used to prepare cell lysates and perform immunoblot analysis. Primary antibodies used include: rabbit LC3 (Cat. #: MBPM036; 1:2,000) from Abacus (Brisbane, Australia) and mouse β-actin (Cat. #: A1978, 1:10,000) from Sigma-Aldrich. The following secondary antibodies were utilized: horseradish peroxidase (HRP)-conjugated anti-rabbit (Cat. #: A6154, […]) and anti-mouse (Cat. #: A4416, 1:10,000) antibodies from Sigma-Aldrich. To ensure equal loading of proteins, membranes were probed for β-actin.", "key": {"[1]": {"settings": "Supplementary Fig 2, 5uM (5M [sic] for Bp4eT)"}, "[2]": {"settings": "Supplementary Fig 2, Baf+, 10nM"}, "[3]": {"settings": "Supplementary Fig 2, Baf+, 100nM"}, "[4]": {"settings": "Supplementary Fig 2, Baf+, 5uM (5M [sic] for Bp4eT)"}}, "note": "Values joined by “and” are separate entries in the source; they are usually repeats but may differ in a detail not shown here. Equal entries are not always repeated.", "data": [{"smiles": "CCNC(=S)NN=C(c1ccccc1)c1ccccn1", "note": "[Bp4eT, 2-benzoylpyridine 4-ethyl-3-thiosemicarbazone]", "values": [{"measurement": "LC3II expression with Baf A1 relative to Baf A1 and control", "setting": "24 h/37°C, MCF-7, agent at all concentrations (10 nM– 5 μM), Baf A1 100 nM", "value": "did not lead to a significant (p > 0.05) increase"}, {"measurement": "LC3-II levels upon co-incubation with Baf A1, compared to Baf A1 alone", "setting": "72 h/37°C, MCF-7, Baf A1 100 nM, Bp4eT 10 and 100 nM, Dp44mT 100 nM", "value": "significant (p < 0.001–0.05) suppression"}, {"measurement": "densitometry WB, relative to NT = 1, Average", "setting": "Fig 7E, 10nM", "value": 6.247}, {"measurement": "densitometry WB, relative to NT = 1", "setting": "Fig 7E, 10nM", "value": "4.981 and 5.294 and 8.4664"}, {"measurement": "densitometry WB, relative to NT = 1, Average", "setting": "Fig 7E, 100nM", "value": 6.003}, {"measurement": "densitometry WB, relative to NT = 1, Average", "setting": "Supplementary Fig 2, 10nM", "value": 1.7596}, {"measurement": "densitometry WB, relative to NT = 1, Average", "setting": "Supplementary Fig 2, 100nM", "value": 0.8507}, {"measurement": "densitometry WB, relative to NT = 1, Average", "setting": "[1]", "value": 0.7357}, {"measurement": "densitometry WB, relative to NT = 1", "setting": "[1]", "value": "0.9358 and 0.7729 and 0.4982"}, {"measurement": "densitometry WB, relative to NT = 1, Average", "setting": "[2]", "value": 143.432}, {"measurement": "densitometry WB, relative to NT = 1", "setting": "[2]", "value": "159.536 and 131.647 and 139.114"}, {"measurement": "densitometry WB, relative to NT = 1, Average", "setting": "[3]", "value": 74.7567}, {"measurement": "densitometry WB, relative to NT = 1", "setting": "[3]", "value": "63.4737 and 60.9216 and 99.8746"}, {"measurement": "densitometry WB, relative to NT = 1, Average", "setting": "[4]", "value": 159.207}, {"measurement": "densitometry WB, relative to NT = 1", "setting": "[4]", "value": "188.04 and 116.854 and 172.727"}, {"measurement": "LC3-II levels compared to the control", "setting": "agent alone, 72 h/37°C, MCF-7, Bp4eT 10 and 100 nM, Dp44mT 100 nM, Baf A1 100 nM", "value": "slight, but significant (p < 0.05) increase"}]}]}
